The test system of series [1] is IL-2 production of T cells (Jurkat cells). Description: IL-2 production inhibitory activity (Jurkat cells stimulated with concanavalin A; IL-2 determined by CTLL-2 bioassay/MTT). The series is classed as cell-based, human. Conditions: 24 hours. The method, then: It is known that the immunosuppressant action of cyclosporins is based on inhibition of the IL-2 gene of T cells. Therefore, the biological activity of cyclosporins can be assayed using inhibition of the IL-2 production of T cells as an indicator. Accordingly, using Jurkat cells (a tumor cell line derived from human T cells), the biological activity of the compound of the invention was evaluated.
Jurkat cells grown to the logarithmic phase in RPMI-1640 medium (Flow Laboratories; 10% heat-inactivated FBS, 300 mg/l L-glutamine, 50 U/ml streptomycin, 50 U/ml penicillin, 25 mM Hepes, 50 µM 2-mercaptoethanol) were seeded onto a 96-well microtiter plate at a density of 8x10^5 cells/ml, 0.1 ml/well. Then, as an IL-2 production inducer, 10 µl of concanavalin A was added, followed by addition of 20 µl each of samples varying in concentration. After the final volume was adjusted to 0.2 ml/well with the medium, the plate was incubated in a CO2 incubator at 37°C for 24 hours. After completion of culture, the reaction mixture in each well was centrifuged (1000 rpm x 5 min.) and the supernatant was recovered.
Determination of IL-2 was carried out by the bioassay using CTLL-2 cells which are known as IL-2-dependent cells.
To 0.1 ml of CTLL-2 cells (40,000/ml) in logarithmic phase, 0.1 ml of an appropriate dilution of the above supernatant was added, and the cells were cultured in a CO2 incubator at 37°C for 48 hours. After completion of culture, the cell growth was determined by the MTT assay. The relation between growth of CTLL-2 cells and IL-2 concentration was previously plotted for a recombinant IL-2 and using the plots as a standard curve, the IL-2 concentration was estimated from the degree of growth of CTLL-2 cells.
The IL-2 production inhibition rate was calculated by means of the following equation (1) and the IC50 value of each sample was calculated from the inhibition rates at various concentrations. IL-2 production inhibition rate (%) = (1-(IL-2 production by cells in presence of sample)/(IL-2 production by cells in absence of sample)) x100 [formula]

The conditions of series [2]: rat, in vivo.
Method: Nephrotoxicity was investigated by the lithium clearance method.
Each sample was adjusted to a concentration of 5 mg/ml and 2 ml/kg was administered intraperitonally for 7 consecutive days. The control group similarly received the solvent used for preparation of the sample solutions. […] On the following day the blood was drawn from the jugular vein and the animals were placed in metabolism cages. Under feeding with the lithium diet, the 24-hour urine was collected and the urine volume was measured using a measuring cylinder. After the rats were taken out from the metabolism cages, blood sampling was immediately carried out and the mean lithium value of two measurements before and after urine collection was taken as the blood lithium value of the corresponding rat. The body weight of rats was determined immediately after they were taken out from metabolism cages. To determine the blood lithium concentration, each blood sample was centrifuged at 3000 rpm for 10 minutes and the plasma was taken for determination. […] 24-hr CLi /100 g = urine volume x 100/rat body weight · urinary Li value/blood Li value [formula]
The next series is described as follows: physchem. The conditions noted are these: water.
The nature of series [3]: Absorption after oral administration and release of the phosphate group (blood concentration by HPLC). It counts as in vivo. Conditions: SD rats, oral 30 mg/kg; for level at 0.5 h / level at 1 h / level at 2 h / level at 4 h / level at 8 h / level at 24 h: rat, blood, read-out: Blood concentration of the administered compound (unchanged). The method, then: Each blood sample was centrifuged (10,000 rpm x 5 min.) and the supernatant was applied onto a pretreatment column (Sep-Pack C18 Vac, Waters). After the column was rinsed with distilled water and 40% methanol, elution was carried out in 10% steps from 50% methanol to 100% methanol and 50 µl of the eluate was injected into an HPLC. From the concentration value thus found, the blood concentration was calculated.

≈ marks a conversion by molar mass, not a printed value.

Method for physchem: From each test tube, 250 µl was taken into a centrifuge tube and centrifuged (10,000 rpm x 10 min.). The supernatant was recovered, diluted with distilled water, and subjected to HPLC for assay.
Column: Inertsil C8 (4.6x250 mm) Mobile phase: acetonitrile-methanol-distilled water-phosphoric acid (50:35:15:0.005) Column temperature: 75°C Detection: UV 210 nm

`C/C=C/C[C@@H](C)[C@@H](O)[C@H]1C(=O)N[C@@H]([C@@H](C)O)C(=O)N(C)CC(=O)N(C)[C@@H](CC(C)C)C(=O)N[C@@H](C(C)C)C(=O)N(C)[C@@H](CC(C)C)C(=O)N[C@@H](C)C(=O)N[C@H](C)C(=O)N(C)[C@@H](CC(C)C)C(=O)N(C)[C@@H](CC(C)C)C(=O)N(C)[C@@H](C(C)C)C(=O)N1C` [Cyclosporin C]: the “IL-2 production inhibitory concentration (IC50 ng/ml)” value in series [1] amounted to 12 ng/mL. Also, the nephrotoxicity result in series [2] is reported as “nephrotoxic”. In addition, the thermodynamic solubility at 30 min in “physchem” turned out to be 29.7 µg/mL (≈ 24.4 µM).

As to `C/C=C/C[C@@H](C)[C@@H](O)[C@H]1C(=O)N[C@@H](CC)C(=O)N(C)CC(=O)N(C)[C@@H](CC(C)C)C(=O)N[C@@H](C(C)C)C(=O)N(C)[C@@H](CC(C)C)C(=O)N[C@@H](C)C(=O)N[C@H](CO)C(=O)N(C)[C@@H](CC(C)C)C(=O)N(C)[C@@H](CC(C)C)C(=O)N(C)[C@@H](C(C)C)C(=O)N1C` [[D-serine^8]cyclosporin A, reference compound], in series [3], the “Sum of blood concentrations up to 24 hr, administered compound (unchanged)” value was 8754 ng/mL. In addition, the level at 0.5 h in series [3] (0.5 hr after administration) stood at 895 ng/mL. Moreover, the level at 1 h in series [3] (1 hr after administration) is 4320 ng/mL. The level at 2 h in series [3] (2 hr after administration) worked out at 1920 ng/mL. In addition, in series [3] (4 hr after administration), the level at 4 h came out at 1020 ng/mL. Also, the level at 8 h in series [3] (8 hr after administration) stood at 533 ng/mL. Moreover, the level at 24 h in series [3] (24 hr after administration) is 69 ng/mL. Moreover, the “IL-2 production inhibitory concentration (IC50 ng/ml)” value in series [1] was found to be 6 ng/mL. The compound further yielded a solubility (thermodynamic) at 30 min in the series “physchem” of 35.1 µg/mL (≈ 28.8 µM).

Turning to `C/C=C/C[C@@H](C)[C@@H](O)[C@H]1C(=O)N[C@@H](CC)C(=O)N(C)CC(=O)N(C)[C@@H](CC(C)C)C(=O)N[C@@H](C(C)C)C(=O)N(C)[C@@H](CC(C)C)C(=O)N[C@@H](C)C(=O)N[C@H](COP(=O)(O)O)C(=O)N(C)[C@@H](CC(C)C)C(=O)N(C)[C@@H](CC(C)C)C(=O)N(C)[C@@H](C(C)C)C(=O)N1C` [[Phosphono-D-serine^8]cyclosporin A, [phosphono-D-serine^8]cyclosporin A], in series [3], the “Sum of blood concentrations up to 24 hr, Sum of (2) and (3)” value is 13501 ng/mL; the “Sum of blood concentrations up to 24 hr, [D-serine^8]cyclosporin A which released phosphoric acid” value is 10448 ng/mL; the “Sum of blood concentrations up to 24 hr, administered compound (unchanged)” value was found to be 3053 ng/mL. For the same compound, in series [3] (0.5 hr after administration), the “Blood concentration of [D-serine^8]cyclosporin A which released phosphoric acid” value was 1413 ng/mL; the “Blood concentration, Sum of (2) and (3) (released plus unchanged compound)” value came to 1804 ng/mL; the level at 0.5 h came out at 391 ng/mL. In addition, in series [3] (1 hr after administration), the “Blood concentration of [D-serine^8]cyclosporin A which released phosphoric acid” value amounted to 3115 ng/mL; the “Blood concentration, Sum of (2) and (3) (released plus unchanged compound)” value was 3928 ng/mL; the level at 1 h is 813 ng/mL. Further, in series [3] (2 hr after administration), the “Blood concentration of [D-serine^8]cyclosporin A which released phosphoric acid” value stood at 2516 ng/mL; the “Blood concentration, Sum of (2) and (3) (released plus unchanged compound)” value stood at 3437 ng/mL; the level at 2 h amounted to 971 ng/mL. Also, in series [3] (4 hr after administration), the “Blood concentration of [D-serine^8]cyclosporin A which released phosphoric acid” value was determined as 2391 ng/mL; the “Blood concentration, Sum of (2) and (3) (released plus unchanged compound)” value is 2927 ng/mL; the level at 4 h came out at 536 ng/mL. Also, in series [3] (8 hr after administration), the “Blood concentration of [D-serine^8]cyclosporin A which released phosphoric acid” value came out at 910 ng/mL; the “Blood concentration, Sum of (2) and (3) (released plus unchanged compound)” value turned out to be 1221 ng/mL; the level at 8 h was 311 ng/mL. Further, in series [3] (24 hr after administration), the “Blood concentration of [D-serine^8]cyclosporin A which released phosphoric acid” value came to 103 ng/mL; the “Blood concentration, Sum of (2) and (3) (released plus unchanged compound)” value was determined as 134 ng/mL; the level at 24 h turned out to be 31 ng/mL.

Turning to `C/C=C/C[C@@H](C)[C@@H](O)[C@H]1C(=O)N[C@@H]([C@@H](C)OP(=O)(O)O)C(=O)N(C)CC(=O)N(C)[C@@H](CC(C)C)C(=O)N[C@@H](C(C)C)C(=O)N(C)[C@@H](CC(C)C)C(=O)N[C@@H](C)C(=O)N[C@H](C)C(=O)N(C)[C@@H](CC(C)C)C(=O)N(C)[C@@H](CC(C)C)C(=O)N(C)[C@@H](C(C)C)C(=O)N1C` [[Phosphonothreonine^2]cyclosporin A, [phosphonothreonine^2]cyclosporin A], the “IL-2 production inhibitory concentration (IC50 ng/ml)” value in series [1] turned out to be 49 ng/mL.

Usually solubility (thermodynamic) stands for the concentration in solution at equilibrium with solid.

Values taken from patent EP0852233A1, “CYCLOSPORIN PHOSPHATE DERIVATIVES AND MEDICINAL COMPOSITION” (NIPPON SHINYAKU COMPANY, LIMITED, priority 1995, dated 1997).
